Source: publication PMC5402990 (PLoS Neglected Tropical Diseases, 2017)

Target: PIKfyve (Homo sapiens, UniProt Q9Y2I7)
Format: cell-based

Chain of PIKfyve (Q9Y2I7 whole entry, species assumed): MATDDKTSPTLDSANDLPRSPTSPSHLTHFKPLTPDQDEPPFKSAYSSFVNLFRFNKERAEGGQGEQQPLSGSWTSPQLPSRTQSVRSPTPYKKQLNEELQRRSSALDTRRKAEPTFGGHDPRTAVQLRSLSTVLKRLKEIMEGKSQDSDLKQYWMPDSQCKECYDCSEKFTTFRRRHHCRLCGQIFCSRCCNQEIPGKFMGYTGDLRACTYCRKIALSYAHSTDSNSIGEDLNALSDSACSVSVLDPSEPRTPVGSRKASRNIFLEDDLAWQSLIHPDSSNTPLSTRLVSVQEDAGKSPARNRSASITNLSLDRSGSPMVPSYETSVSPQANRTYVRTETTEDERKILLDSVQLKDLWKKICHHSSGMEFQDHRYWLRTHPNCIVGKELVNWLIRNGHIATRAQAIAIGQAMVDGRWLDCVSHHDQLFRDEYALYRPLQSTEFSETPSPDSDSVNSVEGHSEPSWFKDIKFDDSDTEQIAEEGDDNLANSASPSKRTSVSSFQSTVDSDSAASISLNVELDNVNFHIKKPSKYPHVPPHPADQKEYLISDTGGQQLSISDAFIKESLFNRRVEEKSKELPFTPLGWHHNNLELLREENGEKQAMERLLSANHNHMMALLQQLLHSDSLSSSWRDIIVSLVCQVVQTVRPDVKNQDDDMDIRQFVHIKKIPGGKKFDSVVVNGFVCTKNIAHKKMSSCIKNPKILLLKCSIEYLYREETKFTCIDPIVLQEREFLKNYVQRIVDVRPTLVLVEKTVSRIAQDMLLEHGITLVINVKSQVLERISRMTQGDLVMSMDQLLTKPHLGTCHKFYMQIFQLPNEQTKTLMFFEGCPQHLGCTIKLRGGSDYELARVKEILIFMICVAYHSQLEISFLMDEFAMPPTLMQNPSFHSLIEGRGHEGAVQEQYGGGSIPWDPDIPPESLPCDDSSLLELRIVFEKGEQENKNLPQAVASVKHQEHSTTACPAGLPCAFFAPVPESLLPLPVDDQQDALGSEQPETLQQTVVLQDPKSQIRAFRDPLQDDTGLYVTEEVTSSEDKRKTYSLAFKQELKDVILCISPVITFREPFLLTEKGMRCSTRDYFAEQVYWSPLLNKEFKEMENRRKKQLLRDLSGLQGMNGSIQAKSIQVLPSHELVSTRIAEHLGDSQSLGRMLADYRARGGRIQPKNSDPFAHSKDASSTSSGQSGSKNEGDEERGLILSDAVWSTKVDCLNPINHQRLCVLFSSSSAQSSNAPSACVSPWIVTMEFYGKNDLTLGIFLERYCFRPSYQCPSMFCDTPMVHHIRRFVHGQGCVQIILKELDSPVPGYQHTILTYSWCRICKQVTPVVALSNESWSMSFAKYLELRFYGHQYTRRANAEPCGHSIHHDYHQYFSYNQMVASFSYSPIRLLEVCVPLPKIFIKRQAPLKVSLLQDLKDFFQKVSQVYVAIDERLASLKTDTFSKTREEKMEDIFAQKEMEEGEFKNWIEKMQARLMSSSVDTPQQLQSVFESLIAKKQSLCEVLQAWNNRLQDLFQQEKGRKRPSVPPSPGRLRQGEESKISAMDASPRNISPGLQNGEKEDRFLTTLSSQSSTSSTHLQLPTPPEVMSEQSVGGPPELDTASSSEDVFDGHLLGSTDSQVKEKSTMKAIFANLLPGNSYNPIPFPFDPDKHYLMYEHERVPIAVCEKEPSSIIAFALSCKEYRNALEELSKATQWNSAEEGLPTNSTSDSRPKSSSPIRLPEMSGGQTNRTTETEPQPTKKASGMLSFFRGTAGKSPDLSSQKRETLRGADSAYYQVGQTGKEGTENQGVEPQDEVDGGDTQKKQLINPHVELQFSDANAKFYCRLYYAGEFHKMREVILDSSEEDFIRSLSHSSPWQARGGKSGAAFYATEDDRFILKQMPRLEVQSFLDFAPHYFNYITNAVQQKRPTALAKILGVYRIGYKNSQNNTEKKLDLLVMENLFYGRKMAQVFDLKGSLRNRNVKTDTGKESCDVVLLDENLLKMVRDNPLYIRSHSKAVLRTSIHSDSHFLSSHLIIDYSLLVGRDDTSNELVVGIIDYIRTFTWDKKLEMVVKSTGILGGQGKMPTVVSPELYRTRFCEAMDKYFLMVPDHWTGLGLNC

In the case of `Cc1cccc(/C=N/Nc2cc(N3CCOCC3)nc(OCCc3ccccn3)n2)c1` [Apilimod, apilimod], the “dose needed to inhibit EBOV GP-mediated infection in GFP-PIKfyve vs. GFP expressing cells” value is reported as “higher doses of apilimod were needed to achieve similar levels of inhibition”.
